Results on 27 molecules are retold here after patent US20110178053A1, “AZACARBOLINE DERIVATIVES, PREPARATION METHOD THEREOF AND THERAPEUTIC USE OF SAME” (SANOFI-AVENTIS, priority 2008, published 2011).

By IC50 is commonly meant the concentration needed to halve the response being measured.

One experiment addresses PLK1 (Homo sapiens, UniProt P53350). Kind of experiment: PLK1 biochemical inhibition.
The target of the next experiment is T1, Pim-2 (Homo sapiens, UniProt Q9P1W9).
T1 construct: His6-labelled recombinant full-length human Pim-1, Pim-2 or Pim-3 protein; His6; made in house
Kind of experiment: TR-FRET assay, Pim-2 kinase (phosphorylation of Bad Ser112). The format is biochemical. To be noted: TR-FRET; ATP 40 μM; read-out: IC50 Pim2. The essentials:
(§1)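 Recombinant His6-tagged full-length human Pim-1, Pim-2 or Pim-3 phosphorylates His6-tagged full-length human Bad at 40 μM ATP (apparent KM). Phospho-Ser112 is detected by TR-FRET between Eu-labelled anti-phosphoBad and APC-labelled anti-His6 (665/615 nm ratio); 10-point duplicate series, top typically 30 μM, IC50 from 4-parameter logistic fit.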

For another experiment, the target named is T2, Pim-3 (Homo sapiens, UniProt Q86V86).
T2 construct: His6-labelled recombinant full-length human Pim-1, Pim-2 or Pim-3 protein; His6; made in house
Briefly: TR-FRET assay, Pim-3 kinase (phosphorylation of Bad Ser112). The format is biochemical. The note with it: TR-FRET; ATP 40 μM; read-out: IC50 Pim3. The essentials:
as §1
For orientation: TR-FRET usually uses a lanthanide donor and a delayed reading to cut background.

The target in the next experiment is T3, Pim-1 (Homo sapiens, UniProt P11309).
T3 construct: His6-labelled recombinant full-length human Pim-1, Pim-2 or Pim-3 protein; His6; made in house
Kind of experiment: TR-FRET assay, Pim-1 kinase (phosphorylation of Bad Ser112). The format is biochemical. The note with it: TR-FRET; ATP 40 μM; read-out: IC50 Pim1. Summed up:
as §1

A value given as a limit tells only on which side of the number the result lay.

Chain of PLK1 (P53350 whole entry, species assumed): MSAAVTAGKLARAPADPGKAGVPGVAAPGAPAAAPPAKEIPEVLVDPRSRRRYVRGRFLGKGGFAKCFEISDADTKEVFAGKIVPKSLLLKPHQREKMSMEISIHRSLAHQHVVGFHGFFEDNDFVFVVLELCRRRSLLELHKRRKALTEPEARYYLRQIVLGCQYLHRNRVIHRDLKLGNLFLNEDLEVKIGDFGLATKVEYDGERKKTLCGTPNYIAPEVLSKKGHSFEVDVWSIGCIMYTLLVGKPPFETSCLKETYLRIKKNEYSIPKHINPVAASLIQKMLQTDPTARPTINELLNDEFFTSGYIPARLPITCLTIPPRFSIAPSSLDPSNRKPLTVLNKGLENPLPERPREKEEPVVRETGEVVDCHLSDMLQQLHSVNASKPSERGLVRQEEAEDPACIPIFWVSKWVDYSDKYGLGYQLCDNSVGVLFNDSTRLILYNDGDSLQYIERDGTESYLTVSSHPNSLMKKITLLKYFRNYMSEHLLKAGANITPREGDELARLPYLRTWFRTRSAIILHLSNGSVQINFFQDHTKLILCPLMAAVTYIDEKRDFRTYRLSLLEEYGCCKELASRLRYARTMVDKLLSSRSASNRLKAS
T1 sequence (Q9P1W9 whole entry): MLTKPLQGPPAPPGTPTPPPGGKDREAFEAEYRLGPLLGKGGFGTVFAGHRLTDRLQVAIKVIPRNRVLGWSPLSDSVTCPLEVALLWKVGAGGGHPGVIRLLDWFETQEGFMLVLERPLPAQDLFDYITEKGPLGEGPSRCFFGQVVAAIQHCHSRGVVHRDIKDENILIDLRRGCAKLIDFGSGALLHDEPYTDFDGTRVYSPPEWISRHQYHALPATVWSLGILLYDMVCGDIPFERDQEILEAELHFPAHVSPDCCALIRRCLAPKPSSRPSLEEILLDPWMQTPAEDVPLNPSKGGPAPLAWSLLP
T3 sequence (P11309 whole entry): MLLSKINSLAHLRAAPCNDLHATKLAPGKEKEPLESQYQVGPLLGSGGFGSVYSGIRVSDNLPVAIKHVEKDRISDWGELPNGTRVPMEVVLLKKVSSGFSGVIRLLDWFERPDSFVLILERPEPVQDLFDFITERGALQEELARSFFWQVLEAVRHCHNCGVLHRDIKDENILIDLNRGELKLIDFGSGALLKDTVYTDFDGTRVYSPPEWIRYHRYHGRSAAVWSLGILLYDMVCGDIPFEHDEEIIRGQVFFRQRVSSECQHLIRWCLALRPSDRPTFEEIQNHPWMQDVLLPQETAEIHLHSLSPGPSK

Consider `CCCN(CCC)CCCN1CCN(c2c(F)cnc3[nH]c4cnc(-c5cccnc5)cc4c23)CC1` [Example 88, 3-{4-[3-fluoro-6-(pyrid-3-yl)-9H-pyrrolo[2,3-b:5,4-c′]dipyrid-4-yl]piperazin-1-yl}-N,N-dipropylpropan-1-amine], for which the IC50 against PLK1 was 1000 to 5000 nM; on Pim-2, 100 to 1000 nM; on Pim-3 it was 1 to 100 nM; at Pim-1, 1 to 100 nM.

Regarding `O=C(c1ccccc1)c1c(F)cnc2[nH]c3cnc(-c4cccnc4)cc3c12` [Example 34, [3-fluoro-6-(pyrid-3-yl)-9H-pyrrolo[2,3-b:5,4-c′]-dipyrid-4-yl](phenyl)-methanone], the IC50 was 100 to 1000 nM on PLK1, more than 5000 nM on Pim-2, 1000 to 5000 nM at Pim-3 and 1 to 100 nM on Pim-1.

Regarding `Fc1cnc2[nH]c3cnc(-c4ccsc4)cc3c2c1` [Example 162, 3-fluoro-6-(thiophen-3-yl)-9H-pyrrolo[2,3-b:5,4-c′]dipyridine], the figures for the IC50 against PLK1, on Pim-3 and on Pim-1 were 1000 to 5000 nM, more than 5000 nM and more than 5000 nM, respectively.

As to `O=C(O)c1cc2c(cn1)[nH]c1ncccc12` [Example 172, 9H-pyrrolo[2,3-b:5,4-c′]dipyridine-6-carboxylic acid], the IC50 on PLK1, at Pim-2 and at Pim-1 was more than 5000 nM throughout.

In the case of `Fc1cnc2[nH]c3cnc(-c4cccnc4)cc3c2c1` [Example 2, 3-fluoro-6-(pyrid-3-yl)-9H-pyrrolo[2,3-b:5,4-c′] dipyridine], the IC50 against PLK1 and on Pim-1 was 100 to 1000 nM throughout.

Take `CN1CCC(N2CCN(c3c(F)cnc4[nH]c5cnc(-c6cccnc6)cc5c34)CC2)CC1` [Example 77, 3-fluoro-4-[4-(1-methylpiperid-4-yl)piperazin-1-yl]-6-(pyrid-3-yl)-9H-pyrrolo-[2,3-b:5,4-c′]-dipyridine]: the results for the IC50 on Pim-2, on Pim-3 and at Pim-1 were more than 5000 nM, 100 to 1000 nM and 100 to 1000 nM, respectively.

Turning to `CN1CCN(c2cccc(-c3cnc4[nH]c5cnc(-c6cccnc6)cc5c4c3)c2)CC1` [Example 139, 3-[3-(4-methylpiperazin-1-yl)phenyl]-6-(pyrid-3-yl)-9H-pyrrolo[2,3-b:5,4-c′]dipyridine], the results for the IC50 at Pim-2, on Pim-3 and on Pim-1 were 1000 to 5000 nM, 1 to 100 nM and 1 to 100 nM, respectively.

Take `CC(C)(O)c1cnc2[nH]c3cnc(-c4cccnc4)cc3c2c1` [Example 16, 2-[6-(pyrid-3-yl)-9H-pyrrolo[2,3-b:5,4-c′]dipyrid-3-yl]propan-2-ol]: the figures for the IC50 at Pim-2, on Pim-3 and at Pim-1 were 1000 to 5000 nM, 100 to 1000 nM and 1000 to 5000 nM, respectively.

For `OCC(O)CCc1c(F)cnc2[nH]c3cnc(-c4cccnc4)cc3c12` (stereo not shown) [Example 30, 4-(3-fluoro-6-(pyrid-3-yl)-9H-pyrrolo[2,3-b:5,4-c′]dipyrid-4-yl]butane-1,2-diol], the IC50 is 1000 to 5000 nM on Pim-2, 100 to 1000 nM on Pim-3 and 1 to 100 nM on Pim-1.

As for `OCCN1CCN(c2c(F)cnc3[nH]c4cnc(-c5cccnc5)cc4c23)CC1` [Example 81, 2-{4-[3-fluoro-6-(pyrid-3-yl)-9H-pyrrolo[2,3-b:5,4-c′]dipyrid-4-yl]piperazin-1-yl}ethanol], the figures for the half-maximal inhibitory concentration (IC50) on Pim-2, on Pim-3 and on Pim-1 were 1000 to 5000 nM, 100 to 1000 nM and 1 to 100 nM, respectively.

For the molecule `Fc1cnc2[nH]c3cnc(-c4cccnc4)cc3c2c1N1CCC(N2CCCC2)CC1` [Example 85, 3-fluoro-6-(pyrid-3-yl)-4-[4-(pyrrolidin-1-yl)piperid-1-yl]-9H-pyrrolo[2,3-b:5,4-c′]-dipyridine], the results for the IC50 on Pim-2, on Pim-3 and on Pim-1 were 1000 to 5000 nM, 100 to 1000 nM and 1 to 100 nM, respectively.

As to `CN(C)CC(=O)N1CCN(c2ccc(-c3cnc4[nH]c5cnc(-c6cccnc6)cc5c4c3)cc2)CC1` [Example 135, 2-(dimethylamino)-1-(4-{4-[6-(pyrid-3-yl)-9H-pyrrolo[2,3-b:5,4-c′]dipyrid-3-yl]-phenyl}piperazin-1-yl)ethanone], the IC50 fell in the range of 100 to 1000 nM on Pim-2, 1 to 100 nM at Pim-3 and 1 to 100 nM at Pim-1.

With `CN(C)CC(=O)N1CCN(c2cccc(-c3cnc4[nH]c5cnc(-c6cccnc6)cc5c4c3)c2)CC1` [Example 134, 2-(dimethylamino)-1-(4-{3-[6-(pyrid-3-yl)-9H-pyrrolo[2,3-b:5,4-c′]dipyrid-3-yl]-phenyl}piperazin-1-yl)ethanone], the IC50 was more than 5000 nM on Pim-2, 1 to 100 nM on Pim-3 and 1 to 100 nM on Pim-1.

Take `CCN(CC)CCn1nc(C)c(-c2cnc3[nH]c4cnc(-c5cccnc5)cc4c3c2)c1C` [Example 125, 2-{3,5-dimethyl-4-[6-(pyrid-3-yl)-9H-pyrrolo[2,3-b:5,4-c′]dipyrid-3-yl]-1H-pyrazol-1-yl}-N,N-diethyl-ethanamine]: the IC50 against PLK1 fell in the range of 1000 to 5000 nM; on Pim-3 it was 1 to 100 nM; at Pim-1 it was 1 to 100 nM.

Regarding `Cn1nccc1-c1c(F)cnc2[nH]c3cnc(-c4cccnc4)cc3c12` [Example 67, 3-fluoro-4-(1-methyl-1H-pyrazol-5-yl)-6-(pyrid-3-yl)-9H-pyrrolo[2,3-b:5,4-c']-dipyridine], the IC50 on Pim-2 is more than 5000 nM; on Pim-3, 1000 to 5000 nM; on Pim-1, 1000 to 5000 nM.

For `Fc1cnc2[nH]c3cnc(-c4cccnc4)cc3c2c1-c1cccnc1` [Example 69, 3-fluoro-4,6-di(pyrid-3-yl)-9H-pyrrolo[2,3-b:5,4-c′]dipyridine], the half-inhibitory concentration (IC50) was more than 5000 nM on Pim-2, 100 to 1000 nM at Pim-3 and 100 to 1000 nM at Pim-1.

Consider `CC(C)N1CCN(c2c(F)cnc3[nH]c4cnc(-c5cccnc5)cc4c23)CC1` [Example 75, 3-fluoro-4-[4-(propan-2-yl)-piperazin-1-yl]-6-(pyrid-3-yl)-9H-pyrrolo[2,3-b:5,4-c′]dipyridine], for which the IC50 at Pim-2 fell in the range of 1000 to 5000 nM; at Pim-3 it was 100 to 1000 nM; at Pim-1, 1 to 100 nM.

Take `Cc1cscc1-c1c(F)cnc2[nH]c3cnc(-c4cccnc4)cc3c12` [Example 57, 3-fluoro-4-(4-methyl-thiophen-3-yl)-6-(pyrid-3-yl)-9H-pyrrolo[2,3-b:5,4-c′]-dipyridine]: the IC50 on Pim-2 lay in the range of 1000 to 5000 nM; at Pim-3, 100 to 1000 nM; at Pim-1, 1000 to 5000 nM.

Take `CC(C)(O)C#Cc1c(F)cnc2[nH]c3cnc(-c4cccnc4)cc3c12` [Example 91, 4-[3-fluoro-6-(pyrid-3-yl)-9H-pyrrolo[2,3-b:5,4-c′]dipyrid-4-yl]-2-methylbut-3-yn-2-ol]: the IC50 at Pim-2 lay within 1000 to 5000 nM; at Pim-3, 1 to 100 nM; on Pim-1 it was 1 to 100 nM.

For `CN1CCN(c2ccc(-c3cnc4[nH]c5cnc(-c6cccnc6)cc5c4c3)cc2)CC1` [Example 138, 3-[4-(4-methylpiperazin-1-yl)phenyl]-6-(pyrid-3-yl)-9H-pyrrolo[2,3-b:5,4-c′]dipyridine], the IC50 lay in the range of 100 to 1000 nM at Pim-2, 1 to 100 nM at Pim-3 and 1 to 100 nM on Pim-1.

For `CN(C(=O)c1c(F)cnc2[nH]c3cnc(-c4cccnc4)cc3c12)c1ccccc1` [Example 35, 3-fluoro-N-methyl-N-phenyl-6-(pyrid-3-yl)-9H-pyrrolo[2,3-b:5,4-c′]-dipyridine-4-carboxamide], the values for the IC50 at Pim-2, on Pim-3 and at Pim-1 were more than 5000 nM, 1000 to 5000 nM and 100 to 1000 nM, respectively.

Turning to `Cc1cc(N2CCNCC2)ncc1-c1cnc2[nH]c3cnc(-c4cccnc4)cc3c2c1` [Example 157, 3-[4-methyl-6-(piperazin-1-yl)pyrid-3-yl]-6-(pyrid-3-yl)-9H-pyrrolo[2,3-b:5,4-c′]-dipyridine], the IC50 on Pim-2 lay within 100 to 1000 nM; at Pim-3, 1 to 100 nM; at Pim-1, 1 to 100 nM.

With `CC(=O)NCc1ccc(-c2c(F)cnc3[nH]c4cnc(-c5cccnc5)cc4c23)cc1` [Example 61, N-{4-[3-fluoro-6-(pyrid-3-yl)-9H-pyrrolo[2,3-b:5,4-c′]-dipyrid-4-y]benzyl}-acetamide], the half-inhibitory concentration (IC50) fell in the range of 1000 to 5000 nM on Pim-2, 1 to 100 nM on Pim-3 and 1 to 100 nM at Pim-1.

On to `Cn1ccc2cc(-c3c(F)cnc4[nH]c5cnc(-c6cccnc6)cc5c34)ccc21` [Example 59, 3-fluoro-4-(1-methyl-1H-indol-5-yl)-6-(pyrid-3-yl)-9H-pyrrolo[2,3-b:5,4-c′]-dipyridine], for which the IC50 on Pim-2 is more than 5000 nM; on Pim-3, 100 to 1000 nM; at Pim-1 it was 1 to 100 nM.

Regarding `CN(C)CCCOc1ccc(-c2cnc3[nH]c4cnc(-c5cccnc5)cc4c3c2)cn1` [Example 145, N,N-dimethyl-3-({5-[6-(pyrid-3-yl)-9H-pyrrolo[2,3-b:5,4-c′]dipyrid-3-yl]pyrid-2-yl}-oxy)propan-1-amine], the values for the half-inhibitory concentration (IC50) at Pim-2, on Pim-3 and on Pim-1 were 100 to 1000 nM, 1 to 100 nM and 1 to 100 nM, respectively.

In the case of `Fc1cnc2[nH]c3cnc(-c4cccnc4)cc3c2c1N1CCC(N2CCOCC2)CC1` [Example 78, 3-fluoro-4-[4-(morpholin-4-yl)piperid-1-yl]-6-(pyrid-3-yl)-9H-pyrrolo[2,3-b:5,4-c′]-dipyridine], the IC50 is more than 5000 nM at Pim-2, 100 to 1000 nM at Pim-3 and 1 to 100 nM at Pim-1.

`c1cncc(-c2cc3c(cn2)[nH]c2ncc(-c4ccc(OCCCN5CCCCC5)cc4)cc23)c1` [Example 147, 3-{4-[3-(piperid-1-yl)propoxy]phenyl}-6-(pyrid-3-yl)-9H-pyrrolo[2,3-b:5,4-c′]-dipyridine]: the IC50 was in the range of 100 to 1000 nM at Pim-2, 1 to 100 nM on Pim-3 and 1 to 100 nM on Pim-1.
